These results are taken from patent publication US20090227607A1, “DEAZAPURINES USEFUL AS INHIBITORS OF JANUS KINASES” (priority 2006, published 2009).

A value given as a limit tells only on which side of the number the result lay.

For experiment [1], the target named is T1, JAK3 (Homo sapiens, UniProt P52333).
T1 sequence (P52333 1-1124): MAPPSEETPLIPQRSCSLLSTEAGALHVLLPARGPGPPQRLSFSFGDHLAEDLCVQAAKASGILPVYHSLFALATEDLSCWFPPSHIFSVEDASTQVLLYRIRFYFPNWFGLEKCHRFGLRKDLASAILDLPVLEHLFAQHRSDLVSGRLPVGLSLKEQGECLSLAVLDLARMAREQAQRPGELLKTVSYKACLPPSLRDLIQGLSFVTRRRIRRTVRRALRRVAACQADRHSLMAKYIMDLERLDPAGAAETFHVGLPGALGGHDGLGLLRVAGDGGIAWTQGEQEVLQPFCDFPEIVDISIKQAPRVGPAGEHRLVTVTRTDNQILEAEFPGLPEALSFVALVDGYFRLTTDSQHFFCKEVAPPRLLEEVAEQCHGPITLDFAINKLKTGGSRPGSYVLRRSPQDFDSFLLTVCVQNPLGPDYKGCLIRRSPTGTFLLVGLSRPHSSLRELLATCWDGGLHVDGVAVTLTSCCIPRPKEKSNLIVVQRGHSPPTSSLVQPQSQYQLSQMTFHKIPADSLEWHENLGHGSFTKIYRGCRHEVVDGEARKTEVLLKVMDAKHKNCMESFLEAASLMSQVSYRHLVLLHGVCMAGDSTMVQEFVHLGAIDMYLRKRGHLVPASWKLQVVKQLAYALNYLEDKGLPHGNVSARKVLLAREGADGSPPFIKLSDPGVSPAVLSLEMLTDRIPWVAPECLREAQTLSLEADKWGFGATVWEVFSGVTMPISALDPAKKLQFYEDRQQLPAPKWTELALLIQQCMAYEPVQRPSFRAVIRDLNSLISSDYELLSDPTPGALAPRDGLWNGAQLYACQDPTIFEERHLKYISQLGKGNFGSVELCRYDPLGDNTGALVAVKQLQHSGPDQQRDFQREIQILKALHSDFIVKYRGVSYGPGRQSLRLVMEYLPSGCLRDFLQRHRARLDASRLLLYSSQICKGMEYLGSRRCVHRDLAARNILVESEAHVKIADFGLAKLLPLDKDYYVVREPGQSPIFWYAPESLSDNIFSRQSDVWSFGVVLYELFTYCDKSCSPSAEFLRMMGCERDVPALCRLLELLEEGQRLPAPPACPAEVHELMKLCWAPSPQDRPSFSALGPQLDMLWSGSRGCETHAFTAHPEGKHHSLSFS
Put plainly: JAK3 Inhibition Assay. It is filed as biochemical. The note with it: 1 μM poly(Glu)4Tyr, 5 μM ATP, 1 nM JAK3, 25° C.; read-out: JAK3 enzyme inhibition data (Ki). The procedure: (§1) Compounds were screened for their ability to inhibit JAK3 using the assay shown below. Reactions were carried out in a kinase buffer containing 100 mM HEPES (pH 7.4), 1 mM DTT, 10 mM MgCl2, 25 mM NaCl, and 0.01% BSA. Substrate concentrations in the assay were 5 μM ATP (200 uCi/μmole ATP) and 1 μM poly(Glu)4Tyr. Reactions were carried out at 25° C. and 1 nM JAK3.
(§2) To each well of a 96 well polycarbonate plate was added 1.5 μl of a candidate JAK3 inhibitor along with 50 μl of kinase buffer containing 2 μM poly(Glu)4Tyr and […]. This was then mixed and […] of kinase buffer containing 2 nM JAK3 enzyme was added to start the reaction. After 20 minutes at room temperature (25° C.), the reaction was stopped with 50 μl of 20% trichloroacetic acid (TCA) that also contained 0.4 mM ATP. The entire contents of each well were then transferred to a 96 well glass fiber filter plate using a TomTek Cell Harvester. After washing, 60 μl of scintillation fluid was added and ^33P incorporation detected on a Perkin Elmer TopCount.
(§3) Tables 5 and 6 depict enzyme inhibition data (Ki) for certain exemplary compounds. Compound numbers in Tables 5 and 6 correspond to those compounds depicted in Tables 1 and 2, respectively.

The target in experiment [2] is JAK-2 enzyme (Homo sapiens, UniProt O60674). Nature of the experiment: JAK2 Inhibition Assay. It is filed as biochemical. The note with it: 15 μM poly(Glu)4Tyr, 12 μM ATP, 25° C. The procedure:
as §1, §2
The assays were as described above in Example 36 except that JAK-2 enzyme was used, the final poly(Glu)4Tyr concentration was 15 μM, and final ATP concentration was 12 μM.
as §3

Chain of JAK-2 enzyme (O60674 whole entry, species assumed): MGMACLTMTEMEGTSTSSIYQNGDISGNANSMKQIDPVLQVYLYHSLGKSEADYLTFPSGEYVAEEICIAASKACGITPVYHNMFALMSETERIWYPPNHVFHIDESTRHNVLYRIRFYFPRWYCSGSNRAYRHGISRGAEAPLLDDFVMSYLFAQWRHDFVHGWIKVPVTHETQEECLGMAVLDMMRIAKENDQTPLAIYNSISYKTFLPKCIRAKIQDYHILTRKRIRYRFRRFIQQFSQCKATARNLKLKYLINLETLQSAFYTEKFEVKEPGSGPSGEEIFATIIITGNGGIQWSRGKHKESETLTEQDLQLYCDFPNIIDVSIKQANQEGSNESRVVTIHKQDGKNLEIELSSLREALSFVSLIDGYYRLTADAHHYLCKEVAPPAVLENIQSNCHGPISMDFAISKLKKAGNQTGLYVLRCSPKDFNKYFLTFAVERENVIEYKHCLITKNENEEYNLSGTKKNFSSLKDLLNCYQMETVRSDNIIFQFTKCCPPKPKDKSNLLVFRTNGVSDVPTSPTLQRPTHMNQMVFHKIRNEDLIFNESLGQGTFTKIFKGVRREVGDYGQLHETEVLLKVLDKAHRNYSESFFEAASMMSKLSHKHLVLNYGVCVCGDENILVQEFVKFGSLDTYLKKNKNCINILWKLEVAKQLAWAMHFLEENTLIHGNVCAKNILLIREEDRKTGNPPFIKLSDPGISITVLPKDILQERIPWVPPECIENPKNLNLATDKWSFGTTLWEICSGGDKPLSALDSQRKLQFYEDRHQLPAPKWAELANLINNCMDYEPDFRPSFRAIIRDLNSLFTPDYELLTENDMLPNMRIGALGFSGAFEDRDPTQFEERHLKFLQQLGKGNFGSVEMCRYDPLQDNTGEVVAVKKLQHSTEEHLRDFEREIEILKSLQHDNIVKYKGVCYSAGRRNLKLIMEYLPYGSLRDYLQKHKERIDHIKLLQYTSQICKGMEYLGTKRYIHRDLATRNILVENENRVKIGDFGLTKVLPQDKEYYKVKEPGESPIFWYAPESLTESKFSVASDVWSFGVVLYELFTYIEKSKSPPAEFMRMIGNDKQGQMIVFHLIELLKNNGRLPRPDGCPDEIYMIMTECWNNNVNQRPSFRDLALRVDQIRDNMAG

What is called Ki is the equilibrium dissociation constant of an inhibitor or competing ligand from its target. As for `O=C(N[C@H](CO)c1cccc(Cl)c1)c1cc(-c2ncnc3[nH]ccc23)c[nH]1` [Compound 1], the Ki in experiment [1] was less than 100 nM.
As to `c1nc(-c2ccsc2)c2cc[nH]c2n1` [Compound 2], the inhibitory constant (Ki) in experiment [2] and in experiment [1] was 100 to 500 nM in each case.
As for `Cn1cc(-c2ncnc3[nH]ccc23)cn1` [Compound 3], the Ki in experiment [2] and in experiment [1] was 100 to 500 nM throughout.
Turning to `c1cc(-c2ncnc3[nH]ccc23)[nH]n1` [Compound 4], the inhibition constant Ki in experiment [2] fell in the range of 500 to 5000 nM; in experiment [1], 100 to 500 nM.
For `c1nc(-c2cn[nH]c2)c2cc[nH]c2n1` [Compound 5], the Ki in experiment [2] and in experiment [1] was 100 to 500 nM each time.
Turning to `FC(F)(F)CCCn1cc(-c2ncnc3[nH]ccc23)cn1` [Compound 6], the inhibition constant (Ki) in experiment [2] is less than 100 nM; in experiment [1], 100 to 500 nM.
Turning to `O=C(NCC(F)(F)F)c1cc(-c2ncnc3[nH]ccc23)c[nH]1` [Compound 7], the Ki in experiment [2] and in experiment [1] was less than 100 nM each time.
For the molecule `CC(C)NC(=O)c1cc(-c2ncnc3[nH]ccc23)c[nH]1` [Compound 8], the inhibitory constant (Ki) in experiment [2] is less than 100 nM; in experiment [1], 100 to 500 nM.
Take `CC(C)CNC(=O)c1cc(-c2ncnc3[nH]ccc23)c[nH]1` [Compound 9]: the Ki in experiment [2] and in experiment [1] was less than 100 nM each time.
Turning to `O=C(NCC(F)F)c1cc(-c2ncnc3[nH]ccc23)c[nH]1` [Compound 10], the inhibitory constant (Ki) in experiment [2] and in experiment [1] was less than 100 nM each time.
Consider `CCC(CC)NC(=O)c1cc(-c2ncnc3[nH]ccc23)c[nH]1` [Compound 11], for which the inhibition constant Ki is less than 100 nM in experiment [2] and 100 to 500 nM in experiment [1].
As for `O=C(NC1CC1)c1cc(-c2ncnc3[nH]ccc23)c[nH]1` [Compound 12], the results for the Ki in experiment [2] and in experiment [1] were less than 100 nM and 100 to 500 nM, respectively.
For the molecule `O=C(NC1CCCC1)c1cc(-c2ncnc3[nH]ccc23)c[nH]1` [Compound 13], the Ki in experiment [2] and in experiment [1] was less than 100 nM throughout.
Turning to `C#CCNC(=O)c1cc(-c2ncnc3[nH]ccc23)c[nH]1` [Compound 14], the inhibition constant Ki was less than 100 nM in experiment [2] and 100 to 500 nM in experiment [1].
As to `N#CCNC(=O)c1cc(-c2ncnc3[nH]ccc23)c[nH]1` [Compound 15], the Ki in experiment [2] and in experiment [1] was less than 100 nM throughout.
As to `CCN(CCC#N)C(=O)c1cc(-c2ncnc3[nH]ccc23)c[nH]1` [Compound 16], the Ki in experiment [2] and in experiment [1] was less than 100 nM each time.
With `C=CCN(CC=C)C(=O)c1cc(-c2ncnc3[nH]ccc23)c[nH]1` [Compound 17], the inhibition constant Ki in experiment [2] and in experiment [1] was less than 100 nM each time.
Take `N#CCCN(Cc1cccnc1)C(=O)c1cc(-c2ncnc3[nH]ccc23)c[nH]1` [Compound 18]: the Ki in experiment [2] and in experiment [1] was less than 100 nM in each case.
Take `CCCCN(CC#N)C(=O)c1cc(-c2ncnc3[nH]ccc23)c[nH]1` [Compound 19]: the inhibition constant Ki in experiment [2] and in experiment [1] was less than 100 nM each time.
With `CCCN(CC1CC1)C(=O)c1cc(-c2ncnc3[nH]ccc23)c[nH]1` [Compound 20], the inhibition constant (Ki) in experiment [2] and in experiment [1] was less than 100 nM in each case.
`CCCN(CCC#N)C(=O)c1cc(-c2ncnc3[nH]ccc23)c[nH]1` [Compound 21]: the Ki in experiment [2] and in experiment [1] was less than 100 nM throughout.
Regarding `CCCCN(CCC#N)C(=O)c1cc(-c2ncnc3[nH]ccc23)c[nH]1` [Compound 22], the inhibition constant Ki in experiment [2] and in experiment [1] was less than 100 nM each time.
In the case of `CN(CCC#N)C(=O)c1cc(-c2ncnc3[nH]ccc23)c[nH]1` [Compound 23], the Ki in experiment [2] and in experiment [1] was less than 100 nM in each case.
`C#CCN(C)C(=O)c1cc(-c2ncnc3[nH]ccc23)c[nH]1` [Compound 24]: the inhibition constant (Ki) in experiment [2] is less than 100 nM; in experiment [1], 100 to 500 nM.
As for `COCCN(CCOC)C(=O)c1cc(-c2ncnc3[nH]ccc23)c[nH]1` [Compound 25], the Ki was less than 100 nM in experiment [2] and 100 to 500 nM in experiment [1].
Take `CCCN(CCC)C(=O)c1cc(-c2ncnc3[nH]ccc23)c[nH]1` [Compound 26]: the inhibitory constant (Ki) in experiment [2] and in experiment [1] was less than 100 nM in each case.
With `CC(C)CN(C)C(=O)c1cc(-c2ncnc3[nH]ccc23)c[nH]1` [Compound 27], the Ki is less than 100 nM in experiment [2] and 100 to 500 nM in experiment [1].
Regarding `CC(C)CN(CC(C)C)C(=O)c1cc(-c2ncnc3[nH]ccc23)c[nH]1` [Compound 28], the Ki is less than 100 nM in experiment [2] and 100 to 500 nM in experiment [1].
In the case of `N#CCCN(Cc1ccccc1)C(=O)c1cc(-c2ncnc3[nH]ccc23)c[nH]1` [Compound 29], the Ki in experiment [2] and in experiment [1] was less than 100 nM each time.
Turning to `CCN(Cc1ccccc1)C(=O)c1cc(-c2ncnc3[nH]ccc23)c[nH]1` [Compound 30], the Ki in experiment [2] and in experiment [1] was less than 100 nM each time.
Take `CC(C)CC(=O)Nc1nc(-c2ncnc3[nH]ccc23)cs1` [Compound 31]: the Ki in experiment [2] and in experiment [1] was less than 100 nM throughout.
Take `O=C(CC1CCCC1)Nc1nc(-c2ncnc3[nH]ccc23)cs1` [Compound 32]: the inhibitory constant (Ki) in experiment [2] and in experiment [1] was less than 100 nM in each case.
As for `CC(C)n1cc(-c2ncnc3[nH]ccc23)cn1` [Compound 34], the Ki in experiment [2] and in experiment [1] was less than 100 nM throughout.
For `CCC(C)n1cc(-c2ncnc3[nH]ccc23)cn1` (centres unmarked) [Compound 35], the inhibition constant (Ki) in experiment [2] and in experiment [1] was less than 100 nM each time.
Turning to `c1nc(-c2cnn(C3CCCC3)c2)c2cc[nH]c2n1` [Compound 36], the Ki in experiment [2] and in experiment [1] was less than 100 nM in each case.
Take `CCCC(CCC)n1cc(-c2ncnc3[nH]ccc23)cn1` [Compound 37]: the Ki in experiment [2] and in experiment [1] was less than 100 nM each time.
For `CCCC(C)n1cc(-c2ncnc3[nH]ccc23)cn1` (centres unmarked) [Compound 38], the Ki in experiment [2] and in experiment [1] was less than 100 nM in each case.
`CCC(CC)n1cc(-c2ncnc3[nH]ccc23)cn1` [Compound 39]: the Ki in experiment [2] and in experiment [1] was less than 100 nM in each case.
In the case of `CCN(CCO)C(=O)c1cc(-c2ncnc3[nH]ccc23)c[nH]1` [Compound 40], the Ki was less than 100 nM in experiment [2] and 100 to 500 nM in experiment [1].
Consider `O=C(c1cc(-c2ncnc3[nH]ccc23)c[nH]1)N1CCCC1CO` (centres unmarked) [Compound 41], for which the figures for the Ki in experiment [2] and in experiment [1] were 100 to 500 nM and 500 to 5000 nM, respectively.
`O=C(c1cc(-c2ncnc3[nH]ccc23)c[nH]1)N1CCC(CO)CC1` [Compound 42]: the inhibition constant (Ki) in experiment [2] lay in the range of 100 to 500 nM; in experiment [1] it was 500 to 5000 nM.
As for `CCOC(=O)C1CCN(C(=O)c2cc(-c3ncnc4[nH]ccc34)c[nH]2)CC1` [Compound 43], the inhibition constant (Ki) in experiment [2] and in experiment [1] was 500 to 5000 nM throughout.
On to `CN(C)CCCN(C)C(=O)c1cc(-c2ncnc3[nH]ccc23)c[nH]1` [Compound 44], for which the inhibitory constant (Ki) in experiment [2] and in experiment [1] was 500 to 5000 nM throughout.
Turning to `O=C(c1cc(-c2ncnc3[nH]ccc23)c[nH]1)N1CCC(O)C1` (centres unmarked) [Compound 45], the Ki in experiment [2] and in experiment [1] was 500 to 5000 nM each time.
As to `CN(CCc1ccccn1)C(=O)c1cc(-c2ncnc3[nH]ccc23)c[nH]1` [Compound 46], the inhibitory constant (Ki) in experiment [2] and in experiment [1] was 100 to 500 nM each time.
On to `NC(=O)C1CCCN1C(=O)c1cc(-c2ncnc3[nH]ccc23)c[nH]1` (centres unmarked) [Compound 47], for which the inhibition constant (Ki) in experiment [2] and in experiment [1] was 100 to 500 nM each time.
Molecule `CC(C(=O)OC(C)(C)C)n1cc(-c2ncnc3[nH]ccc23)cn1` (centres unmarked) [Compound 95] gave a Ki in experiment [2] of 100 to 500 nM.
